Results on five molecules are retold here after paper PMC10675077, “Antimicrobial Properties of New Polyamines Conjugated with Oxygen-Containing Aromatic Functional Groups” (Molecules, 2023).

In one series the test system is E. coli. In words: Lytic activity, time-kill (OD600), E. coli. The series is classed as cell-based, Escherichia coli. The note with it: 5 times the MIC. The method, then: To determine if the compounds showing microbicidal activity induce cell lysis, the procedure described by Fleeman et al. was followed, with the modifications indicated below. The E. coli and S. aureus strains were grown as in the experiments described earlier. The cells corresponding to 1.5 units of OD600 were collected and resuspended in 1% BP after washing in the same medium. They were incubated in a final volume of 1 mL with concentrations 5 times higher than the MIC of the analysed compounds, and OD600 was monitored over time. Other antimicrobial compounds were also used in this study as controls. The experiments were performed in triplicate.

The next series relates to yeast cells. In words: Intracellular ATP by luciferase bioluminescence, yeast. The series is classed as cell-based, Saccharomyces cerevisiae. The settings on record: 50-fold the MIC, overnight treatment. As for the experimental part:
The procedure described by Lehtinen et al. was followed, with the modifications indicated herein. In the case of bacteria, 1.5 OD600 units were incubated overnight in 1 mL of final volume with 5-fold MIC concentrations. Then, the cells were collected, washed 3 times in 20 mM phosphate buffer pH 7.4, and lysed in 200 μL of LS1 (50 mM of glucose, 25 mM of Tris-HCl pH 8.0, and 10 mM of EDTA pH 8.0) containing 5 mg/mL of lysozyme and the same volume of glass beads (425–600 μm), by stirring 10 times for 15 s each. Then, the solution was centrifuged at 14,800× g for 15 min, and the supernatant was used for a luciferase assay. For this purpose, in each well of a microtiter plate, 100 μL of luciferase assay buffer (0.015 M of MgSO4, 0.015 M of KH2PO4 pH 8, 0.004 M of EGTA pH 8, and 2 mM of DTT) was added together to a 50 μL of 0.3 mg/mL luciferin solution in 0.01% (w/v) Triton X-100 and 50 μL of the cell extract. Finally, 15 μL of a 67 μg/mL aqueous solution of luciferase was added. Light emission was immediately detected using a Luminoskan Ascent instrument (Thermo Scientific, Waltham, MA, USA) for 1 s per well. Glass beads, lysozyme, luciferin, and luciferase were purchased from Sigma-Aldrich.
[…] Then, cells were collected and washed as above and resuspended in 500 μL of LS2 (140 mM of NaCl, 1.5 mM of MgCl2, 10 mM of Tris-HCl pH 8.0, and 0.5% (v/v) NP40). Cells were lysed in the presence of 1 volume of glass beads as described above. The next steps were carried out as in the case of bacterial samples.
Experiments were carried out at least in triplicate in all cases, and control drugs and SDS (0.1% (w/v) of the final concentration) were also included.

A short description of series [1]: Potentiometric titrations in water (protonation constants). The settings on record: for log β (cumulative protonation constant): calculated as log β = ∑j log KHjL; for n, average number of positive charges at pH 7.4: calculated from protonation constants. It is filed as physicochemical. The method, then:
The potentiometric titrations were carried out at 298.1 ± 0.1 K using NaCl 0.15 M as a supporting electrolyte. The experimental procedure (burette, potentiometer, cell, stirrer, microcomputer, etc.) has been fully described elsewhere. The acquisition of the EMF data was performed with the computer program PASAT [50]. The reference electrode was a Ag/AgCl electrode in a saturated KCl solution. The glass electrode was calibrated as a hydrogen-ion concentration probe via the titration of previously standardised amounts of HCl with CO2-free NaOH solutions and the equivalent point determined using the Gran method, which provides the standard potential, E^θ′, and the ionic product of water (pKw = 13.73(1)).
The computer program […] was used to calculate the protonation constants. The pH range investigated was 2.5–11.0, and the concentration of the ligands ranged from 5 × 10^−4 to 5 × 10^−[…]. The different titration curves for each system (at least two) were treated either as a single set or as separated curves without significant variations in the values of the stability constants. Finally, the sets of data were merged and treated simultaneously to give the final stability constants.

A further series concerns human Jurkat cell line. The experiment in a line: Cytotoxicity, flow cytometry viability assay with propidium iodide. It is filed as cell-based. The note with it: 24 h treatment, average of three experiments. In short, it runs like this:
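Jurkat cells in RPMI 1640 with 5% FCS exposed to a concentration range of compound or PBS for 24 h. Dead cells scored as PI-positive events (3.75 μM PI, 5 min, room temperature) by flow cytometry, 10,000 events per sample. IC50 obtained by curve fitting; triplicates.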
(In general: Flow cytometry measures light scatter and fluorescence of single cells or particles in a stream.)

Details of series [2]: method as in PMID 37335019. The note with it: 298 K, 0.15 mol/dm NaCl; error in last figure in parentheses; cited from earlier work.
[3] abbreviates: 298 K, 0.15 mol/dm^3 NaCl, error in last figure in parentheses.

Like-named read-outs stand apart in the source and are kept apart here.

As to `c1cc2nc(c1)CNCCN(CCNCc1ccc3c(c1)OCO3)CCNC2` [Compound 5a, 2-(3,6,9-triaza-1(2,6)-pyridinacyclodecaphane-6-yl)-N-(benzo[d][1,3]dioxol-5-ylmethyl)ethan-1-amine], the “Lytic activity (OD600 over time)” value with E. coli is “do not have a lytic effect”. Besides, the “Intracellular ATP level relative to untreated cells” value in the series with yeast cells is 50–70%. Moreover, in series [1] (setting [3]), the “Stepwise protonation constant (log K), H2L + H ⇄ H3L” value is recorded as 7.30 (1); the “Stepwise protonation constant (log K), L + H ⇄ HL” value is 10.48 (1); the “Stepwise protonation constant (log K), LH + H ⇄ H2L” value is reported as 8.78 (1). Further, the “log β (cumulative protonation constant)” value in series [1] (298 K, 0.15 mol/dm^3 NaCl) is listed as 26.56. Further, the “n, average number of positive charges at pH 7.4” value (“n, average number” for short) in series [1] is listed as 2.4.

In the case of “N^1-(benzo[d][1,3]dioxol-5-ylmethyl)-N^3-(2-((2-((3-((benzo[d][1,3]dioxol-5-ylmethyl)amino)propyl)amino)ethyl)(2-((3-(((2,3-dihydrobenzofuran-6-yl)methyl)amino)propyl)amino)ethyl)amino)ethyl)propane-1,3-diamine [Compound 4a]”, in the series on human Jurkat cell line, the “IC50, cytotoxicity on the human Jurkat cell line” value came out at 76.86 µg/mL. In series [1] (setting [3]), the “Stepwise protonation constant (log K), H2L + H ⇄ H3L” value is listed as 9.12 (1); the “Stepwise protonation constant (log K), H3L + H ⇄ H4L” value is 8.07 (1); the “Stepwise protonation constant (log K), H4L + H ⇄ H5L” value is reported as 7.48 (1); the “Stepwise protonation constant (log K), H5L + H ⇄ H6L” value is listed as 6.35 (2). Besides, in series [1] (setting [3]), the “Stepwise protonation constant (log K), L + H ⇄ HL” value is listed as 10.95 (1) and the “Stepwise protonation constant (log K), LH + H ⇄ H2L” value is recorded as 9.63 (1). Moreover, in series [1] (298 K, 0.15 mol/dm^3 NaCl), the “log β (cumulative protonation constant)” value is 51.60. Besides, the “n, average number” value in series [1] is 4.5.

For `c1cc2nc(c1)CNCCN(CCNCc1ccc3c(c1)CCO3)CCNC2` [Compound 8a, 2-(3,6,9-triaza-1(2,6)-pyridinacyclodecaphane-6-yl)-N-((2,3-dihydrobenzofuran-5-yl)methyl)ethan-1-amine], in series [1] (setting [3]), the “Stepwise protonation constant (log K), H2L + H ⇄ H3L” value is 7.296 (4); the “Stepwise protonation constant (log K), L + H ⇄ HL” value is 9.943 (3); the “Stepwise protonation constant (log K), LH + H ⇄ H2L” value was 8.736 (3). In series [1] (298 K, 0.15 mol/dm^3 NaCl), the “log β (cumulative protonation constant)” value was 26.17. In series [1], the “n, average number” value is on record as 2.4.

On to `Oc1ccc(CNCCN2CCNCc3cccc(n3)CNCC2)cc1` [Compound 7a], for which, in series [2], the “Stepwise protonation constant (log K), H2L + H ⇄ H3L” value is 8.516 (8); the “Stepwise protonation constant (log K), H3L + H ⇄ H4L” value is reported as 7.341 (9); the “Stepwise protonation constant (log K), L + H ⇄ HL” value is 10.153 (9); the “Stepwise protonation constant (log K), LH + H ⇄ H2L” value is reported as 9.473 (9). Besides, the “log β (cumulative protonation constant)” value in series [1] (298 K, 0.15 mol/dm^3 NaCl) was 35.48. In addition, in series [1], the “n, average number” value is on record as 2.4.

For the molecule `Oc1ccccc1CNCCN1CCNCc2cccc(n2)CNCC1` [Compound 6a], the “Lytic activity (OD600 over time)” value in the series with E. coli is recorded as “do not have a lytic effect”. Besides, in the series on yeast cells, the “Intracellular ATP level relative to untreated cells” value is listed as 50–70%. Also, in series [2], the “Stepwise protonation constant (log K), H2L + H ⇄ H3L” value is listed as 7.92 (1); the “Stepwise protonation constant (log K), H3L + H ⇄ H4L” value is on record as 6.67 (2); the “Stepwise protonation constant (log K), L + H ⇄ HL” value is 9.93 (1); the “Stepwise protonation constant (log K), LH + H ⇄ H2L” value is 9.11 (1). Further, the “n, average number” value in series [1] was 1.91.
